# In ChEMBL document CHEMBL2074391, “Overlapping substrate specificities of cytochrome P450 3A and P-glycoprotein for a novel cysteine protease inhibitor” (Drug Metab Dispos, 1998):
# How the values were obtained:
# ABCB1 (P-glycoprotein) [1] = biological target: T1, ABCB1 (P-glycoprotein) (Homo sapiens, UniProt P08183); assay: TP_TRANSPORTER: inhibition of photolabeling by LU-49888 (LU-49888: 0.1 uM, K02: 10 uM) in membranes from CEM5k cells; assay type: functional, cell membranes, Membrane; details: probe LU-49888 (0.1 uM)
# ABCB1 (P-glycoprotein) [2] = biological target: T1, ABCB1 (P-glycoprotein); assay: TP_TRANSPORTER: inhibition of photolabeling by Azidopine (Azidopine: 0.05 uM, K02: 10 uM) in membranes from CEM5k cells; assay type: functional, cell membranes, Membrane; details: probe Azidopine (0.05 uM)
# [3] = biological target: ATP-dependent translocase ABCB1 (Homo sapiens, UniProt P08183); assay: TP_TRANSPORTER: transepithelial transport (basal to apical) in MDR1-expressing MDCK cells; assay type: functional, cell-based; details: dog
# ATP-dependent translocase ABCB1, sequence (P08183 whole entry): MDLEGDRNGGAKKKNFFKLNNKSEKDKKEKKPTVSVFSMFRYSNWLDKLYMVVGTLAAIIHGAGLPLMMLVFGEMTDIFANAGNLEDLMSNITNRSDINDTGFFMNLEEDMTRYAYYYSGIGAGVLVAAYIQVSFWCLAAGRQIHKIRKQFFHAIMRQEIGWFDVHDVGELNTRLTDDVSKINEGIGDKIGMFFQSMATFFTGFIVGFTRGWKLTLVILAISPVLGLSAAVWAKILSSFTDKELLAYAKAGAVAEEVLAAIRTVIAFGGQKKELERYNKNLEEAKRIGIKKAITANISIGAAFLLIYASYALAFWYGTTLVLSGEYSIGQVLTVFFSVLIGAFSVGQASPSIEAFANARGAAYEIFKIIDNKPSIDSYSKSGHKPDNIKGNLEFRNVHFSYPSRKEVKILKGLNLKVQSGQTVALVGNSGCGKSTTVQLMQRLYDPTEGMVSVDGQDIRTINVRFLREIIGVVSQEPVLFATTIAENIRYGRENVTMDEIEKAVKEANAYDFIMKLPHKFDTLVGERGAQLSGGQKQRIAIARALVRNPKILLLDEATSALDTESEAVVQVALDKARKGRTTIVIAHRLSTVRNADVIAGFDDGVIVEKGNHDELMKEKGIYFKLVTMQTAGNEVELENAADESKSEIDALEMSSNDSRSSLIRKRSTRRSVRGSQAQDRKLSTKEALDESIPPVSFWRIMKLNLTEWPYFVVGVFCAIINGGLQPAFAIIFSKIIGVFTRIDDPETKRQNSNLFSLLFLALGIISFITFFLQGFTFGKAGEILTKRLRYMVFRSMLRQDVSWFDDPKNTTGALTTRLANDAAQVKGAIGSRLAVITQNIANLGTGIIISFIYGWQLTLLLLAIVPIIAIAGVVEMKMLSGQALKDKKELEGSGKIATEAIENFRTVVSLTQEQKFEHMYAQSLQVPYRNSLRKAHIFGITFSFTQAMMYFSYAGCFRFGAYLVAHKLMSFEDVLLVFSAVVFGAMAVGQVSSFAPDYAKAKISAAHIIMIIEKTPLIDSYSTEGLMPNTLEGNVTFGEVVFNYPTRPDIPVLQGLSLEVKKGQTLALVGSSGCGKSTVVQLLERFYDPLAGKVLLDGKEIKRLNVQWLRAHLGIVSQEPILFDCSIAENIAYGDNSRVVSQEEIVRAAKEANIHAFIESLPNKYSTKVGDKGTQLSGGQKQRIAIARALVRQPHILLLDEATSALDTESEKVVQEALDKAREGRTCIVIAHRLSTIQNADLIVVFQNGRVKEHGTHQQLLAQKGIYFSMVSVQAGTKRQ
# T1 sequence (P08183 whole entry): as above
structure (smiles),measurement,setting,value
O=C(N[C@H](/C=C/S(=O)(=O)c1ccccc1)CCc1ccccc1)[C@H](Cc1ccccc1)NC(=O)N1CCOCC1,inhibition at 10 µM,ABCB1 (P-glycoprotein) [1],80%
same,inhibition at 10 µM,ABCB1 (P-glycoprotein) [2],74%
same,Activity,[3],substrate [+]
